Key:
PARP7 [1] = target: T1, PARP7 (Homo sapiens, UniProt Q7Z3E1); experiment: PARP7 TR-FRET binding inhibition (displacement of probe RBN011147); conditions: TR-FRET, Biotin-labeled probe RBN011147; read-out: PARP7 binding inhibition IC50
T1 construct: purchased BPS 80527
T1 sequence (Q7Z3E1 1-657): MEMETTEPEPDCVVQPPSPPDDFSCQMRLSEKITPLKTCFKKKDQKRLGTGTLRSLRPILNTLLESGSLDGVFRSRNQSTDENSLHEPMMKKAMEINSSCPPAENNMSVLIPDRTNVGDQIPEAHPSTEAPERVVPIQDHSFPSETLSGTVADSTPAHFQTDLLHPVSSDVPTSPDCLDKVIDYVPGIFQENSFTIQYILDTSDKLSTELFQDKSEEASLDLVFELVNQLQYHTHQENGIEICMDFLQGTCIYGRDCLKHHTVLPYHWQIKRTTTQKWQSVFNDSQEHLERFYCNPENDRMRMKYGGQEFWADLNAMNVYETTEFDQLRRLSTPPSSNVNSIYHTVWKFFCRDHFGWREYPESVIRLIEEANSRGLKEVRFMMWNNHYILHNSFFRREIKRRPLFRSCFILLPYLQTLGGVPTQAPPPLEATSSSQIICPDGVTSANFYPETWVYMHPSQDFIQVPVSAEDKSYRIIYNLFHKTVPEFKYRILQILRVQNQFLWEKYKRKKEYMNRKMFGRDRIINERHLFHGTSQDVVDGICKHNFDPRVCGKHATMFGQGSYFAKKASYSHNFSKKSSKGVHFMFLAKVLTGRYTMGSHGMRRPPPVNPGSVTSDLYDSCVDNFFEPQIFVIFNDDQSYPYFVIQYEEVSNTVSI
Procedure: The ability of the compound to substitute the probe RBN011147 (Wigle et al., 2020, Cell Chemical Biology 27, 877-887) was tested by a TR-FRET method, and IC50 was calculated to evaluate the binding ability of the compound to PARP7. […]

PARP7 [2] = target: T1, PARP7; experiment: Inhibition of the compound on PARP7 protein activity (ADP-ribosylation, chemiluminescence); type: biochemical; conditions: Histone H1 coated plate, Biotin-Labeled NAD+, 2 h at room temperature, chemiluminescence; read-out: PARP7 activity inhibition IC50
NCI-H1373 cells = experiment: Inhibition on NCI-H1373 cell proliferation (Cell-Titer-Glo); type: cell-based; conditions: Homo sapiens, 144 h; NCI-H1373 cells, incubation for 6 days, Cell-Titer-Glo; read-out: NCI-H1373 cell proliferation inhibition IC50
Procedure: The inhibitory effect of the compound on PARP7 was evaluated by testing the inhibitory effect of the compound on NCI-H1373 cell proliferation.
NCI-H1373 cells (ATCC, CRL-5866) were cultured in a complete medium, namely, a RPMI-1640 medium (Gibco, 22400089) containing 10% fetal bovine serum (Corning, 35-081-CV).
Negative control wells and positive control wells were added with 50 nL DMSO (Sigma, D2650), respectively.
In "Day 0" detection plate, NCI-H1373 cells were seeded at a density of 600 cells/well (50 µL) in a complete medium into the Day 0 test wells of a 384-well detection plate (Grenier, 781091). Then, 25 µL of Cell-Titer-Glo reagent (Promega, G7573) was added to each well, followed by centrifugation at 1000 rpm at room temperature for 1 minute and incubation at room temperature under shaded conditions for 10 min. Chemiluminescence signals were collected using an Envision (Perkin Elmer, EnVision 2105) to obtain the average value of the Day 0 test values.
In "compound detection plate", NCI-H1373 cells were seeded at a density of 600 cells/well (50 µL) in a complete medium into the negative control wells and the compound detection wells of a 384-well detection plate (Grenier, 781091), and 50 µL of cell culture medium was added to the positive control wells, followed by centrifugation at 1000 rpm at room temperature for 1 minute and placing in a cell incubator at 37°C, 5% CO2 for incubation for 6 days. […] Chemiluminescence signals were collected using an Envision (Perkin Elmer, EnVision 2105). The test values for each compound well, negative control well, and positive control well were obtained.
The proliferation inhibition ratio formula is as follows: [formula]
The average value of the negative control = the average value of the Day 6 test values of each negative control well minus the average value of the Day 0 test values
The average value of the positive control = the average value of the Day 6 test values of each positive control well
The average value of the compound test = (the Day 6 test value of compound test well 1 + the Day 6 test value of compound test well 2)/2 - the average value of the Day 0 test values

IC50 (PARP7 [1])	IC50 (PARP7 [2])	IC50 (NCI-H1373 cells)	SMILES
30 to 100 nM	10 to 30 nM	> 3000 nM	CC(CCNC(=O)c1cccc2c1[nH]c(=O)n2-c1ncc(C(F)(F)F)cn1)Nc1cn[nH]c(=O)c1C(F)(F)F (stereo not drawn) [Example 6]
< 10 nM	< 3 nM	> 3000 nM	CC(CCCN1C(=O)c2ccc(-c3ncc(C(F)(F)F)cn3)cc2C1=O)Nc1cn[nH]c(=O)c1C(F)(F)F (stereo not drawn) [Example 9]
30 to 100 nM	< 3 nM	> 3000 nM	Cc1c(CCC(=O)Nc2ccc(-c3ncc(C(F)(F)F)cn3)cn2)c[nH]c(=O)c1C(F)(F)F [Example 13]
< 10 nM	< 3 nM	> 3000 nM	CC(CCCNC(=O)c1ccc(-c2ncc(N3CCOCC3)cn2)cc1)Nc1cn[nH]c(=O)c1C(F)(F)F (stereo not drawn) [Example 14]
10 to 30 nM	3 to 10 nM	> 3000 nM	CC(CCCNC(=O)c1ccc(-c2ncc(N3CCOCC3)s2)cc1)Nc1cn[nH]c(=O)c1C(F)(F)F (stereo not drawn) [Example 15]
10 to 30 nM	3 to 10 nM	> 3000 nM	CC(CCCNC(=O)c1ccc(-c2ncc(N3CC(F)C3)s2)cc1)Nc1cn[nH]c(=O)c1C(F)(F)F (stereo not drawn) [Example 16]
< 10 nM	< 3 nM	300 to 1000 nM	CC(CCCNC(=O)c1ccc(-c2cc(-c3cccnc3)sn2)cc1)Nc1cn[nH]c(=O)c1C(F)(F)F (stereo not drawn) [Example 18]
< 10 nM	< 3 nM	300 to 1000 nM	CC(CCCNC(=O)c1ccc(-c2ncc(C3CC3)s2)cc1)Nc1cn[nH]c(=O)c1C(F)(F)F (stereo not drawn) [Example 19]
< 10 nM	< 3 nM	1000 to 3000 nM	CC(CCCNC(=O)c1ccc(-c2ncc(N3CC(F)C3)cn2)cc1)Nc1cn[nH]c(=O)c1C(F)(F)F (stereo not drawn) [Example 20]
< 10 nM	< 3 nM	1000 to 3000 nM	COc1cnc(-c2ccc(C(=O)NCCCC(C)Nc3cn[nH]c(=O)c3C(F)(F)F)c(F)c2)s1 (stereo not drawn) [Example 21]
10 to 30 nM	< 3 nM	300 to 1000 nM	CC(CCCNC(=O)c1ccc(-c2ncc(C(F)F)s2)cn1)Nc1cn[nH]c(=O)c1C(F)(F)F (stereo not drawn) [Example 23]
< 10 nM	< 3 nM	1000 to 3000 nM	CC(CCCNC(=O)c1cnc(-c2ncc(C(F)F)s2)cn1)Nc1cn[nH]c(=O)c1C(F)(F)F (stereo not drawn) [Example 25]
< 10 nM	< 3 nM	1000 to 3000 nM	CC(CCCNC(=O)c1cnc(-c2ncc(C(F)(F)F)s2)cn1)Nc1cn[nH]c(=O)c1C(F)(F)F (stereo not drawn) [Example 26]
10 to 30 nM	< 3 nM	> 3000 nM	COc1cnc(-c2ccc(C(=O)NCCCC(C)Nc3cc[nH]c(=O)c3C(F)(F)F)c(F)c2)s1 (stereo not drawn) [Example 27]
> 100 nM	30 to 100 nM	> 3000 nM	CC(CCCNC(=O)c1ccc(-c2ncc(C(F)F)s2)cn1)Nc1cn[nH]c(=O)c1C#N (stereo not drawn) [Example 28]
10 to 30 nM	< 3 nM	> 3000 nM	CC(CCCNC(=O)c1ccc(-c2ncc(C(F)F)s2)cn1)Nc1cc[nH]c(=O)c1C(F)(F)F (stereo not drawn) [Example 29]
30 to 100 nM	3 to 10 nM	> 3000 nM	Cc1cnc(-c2cnc(C(=O)NCCCC(C)Nc3cc[nH]c(=O)c3C(F)(F)F)cn2)s1 (stereo not drawn) [Example 30]

SMILES	IC50 (PARP7 [1])	IC50 (PARP7 [2])	IC50 (NCI-H1373 cells)
COc1cnc(-c2ccc(C(=O)NCCCC(C)Nc3cn[nH]c(=O)c3C(F)(F)F)cc2)s1 (stereo not drawn) [Example 22]	10 to 30 nM	< 3 nM	1000 to 3000 nM

Reference: patent EP4800012A1, “COMPOUND ACTING AS PARP7 INHIBITOR” (Dovetree Medicines Unus, Inc., priority 2023, dated 2025)
